Here are results for one molecule from patent US20040248971A1, “Use of vitamin e succinate and antiandrogen combination” (priority 2001, published 2004).

For experiment [1], the system named is primary cultured fibroblasts from normal prostate tissue. Briefly: MTT assay, primary cultured prostate fibroblast growth. It is filed as cell-based. The following applies: 10 μM VES, 10% FBS DMEM.
In experiment [2] the test system is PSA. Briefly: PSA expression in LNCaP cells (Western and Northern blotting). It is filed as cell-based, human. On the procedure:
Cells without treatment were harvested on day 2 and used as a control. Western blotting was used to detect the expression of PSA protein. Actin served as an internal control. […] Cells were harvested on days 1, 2, and 3 for Northern blotting analysis. β-Actin served as an internal control. […] The transfections were performed at least three times and presented as an average±SD. […] LNCaP cells without any treatment harvested on the first day (day 0) is used as a control. Western blotting was applied to detect the expression of PSA protein level. […] Cells were harvested on day 1, 2, and 3 for Northern blotting analyses. (G). […] The transfections were performed three times and presented as an average: bar-denotes standard deviation.
Protein harvested from cells without treatment on the first day (day 0) was used as a control. Fifty micrograms of whole-cell lysate was subjected to Western blotting assay.
LNCaP cells were cultured in RPMI medium with 8% FBS, and treated with […] of the indicated reagent. Proteins harvested from cells without treatment on day 2 were used as a control. 60 micrograms of whole cell lysate was subjected to Western blotting assay.
Total protein lysate from LNCaP cells was prepared as previously described (Yeh, PNAS). After separation of 50 μg protein by SDS-PAGE gel, proteins were transferred by electrophoresis to Immobilon-P membrane (Millipore Corp., Bedford, Mass.) and incubated in PBS with 0.1% Tween-20 and 10% FCS for 2 h. Primary antibodies specific for human AR, PSA, and β-actin were diluted in PBS with 0.1% Tween-20 (PBST) as described in manual and incubated at room temperature for 2 h. Membranes were washed in PBST (three times, 10 min each time) and incubated with AP-conjugated secondary antibody which was diluted as described in manual in PBST and incubated for 2 h in room temperature, washed in PBST (three times, 10 min each time). The proteins were detected by AP western blotting reagents.
Cells were harvest after 1, 2, and 3 days treatment. Total RNA was extracted using Trizol, according to manufacturer's directions (GIBCO). Total RNA (20 μg) was electrophoresed though formaldehyde-agarose gels and transferred to Hybond-N+ membrane (Amersham Pharmacia Biotech) according the company's protocol (17).
For Northern blots, the fragments of the human PSA, AR, and β-actin cDNA were labeled with [^32P]-dCTP using the random primed DNA labeling kit from Amersham Pharmacia Biotech. Membranes were prehybridized, hybridized, and washed using Rapid-hyb system from Amersham Pharmacia Biotech, according to the manufacturer's user manual. The mRNA was detected using phosphorimager screen system (Molecular Dynamics).

The test system of experiment [3] is AR. The experiment can be described thus: In vivo AR radioligand competition binding assay in LNCaP cells. Also noted: species or system human. The note with it: 10 μM VES pretreatment 24 h; 2.5 nM [3H]R1881. The method, then:
[^3H]R1881-binding without competition was set at 100%. […] (B) AR N-C dimerization.
LNCaP cells were plated into 60-mm dishes and grown to 60% confluence. […] After 1-h incubation, cells were harvested by lysis buffer (PBS with 1% Triton X-100). Equal protein amounts of cell extract were subjected to binding assays, which were terminated by adding hydroxylapatite. Each sample was filtered by using a sampling manifold (Millipore) and unbound ligand was removed by washing. Filter papers that contained bound ligand were transferred to counting vials containing 5 ml of liquid scintillation fluid and counted with a multipurpose scintillation counter (Beckman).
Background: Loss of bound radioactivity is the signal in a displacement assay; it reports binding, not function.

Experiment [4] concerns AR. The experiment can be described thus: AR translocation / immunostaining. The experiment is classed as cell-based. From the text: Whether VES could influence translocation of AR was examined.
The test system of experiment [5] is LNCaP cells. The experiment can be described thus: MTT assay / cell counting, LNCaP cell growth. The following applies: 10 μM VES, 4 days, phase-contrast. The experiment is classed as cell-based, human.

For `Cc1c(C)c2c(c(C)c1OC(=O)CCC(=O)O)CCC(C)(CCCC(C)CCCC(C)CCCC(C)C)O2` (stereo not drawn) [VES, RRR-α-tocopheryl succinate], the “prostate fibroblast cell growth” value in experiment [1] was “only a marginal inhibitory effect and not”. For the same molecule, in experiment [2] (LNCaP cells in normal serum or androgen-stimulated conditions), the “intracellular and secreted levels of PSA” value is recorded as “decreases”. The PSA expression result in experiment [2] (LNCaP, 8% FBS, Western blotting (FIG. 9)) is “most effective isoform”. Also, in experiment [2] (LNCaP, 5 nM DHT, 10 μM VES, Western and Northern blotting), the “PSA expression at mRNA and protein levels” value is listed as “effectively repressed”. For the same molecule, the “influence on AR ligand binding” value in experiment [3] is reported as “little influence”. Besides, in experiment [4], the “AR distribution between cytosol and nucleus” value is listed as “little influence”; the “total AR-staining intensity” value was “reduced”. Besides, the “morphologic change of LNCaP cells” value in experiment [5] is listed as “most of the cells dying”.
